Measured values published in PMC5218480 (PLoS ONE, 2017).

Tested on: MV-4-11 cells
Assay: Gene expression microarray analysis (Affymetrix PrimeView) and GSEA
Format: cell-based, human
Parameters: RFU PODN (11730768_x_at) / Fold change /veh PODN (11730768_x_at) / RFU LINC00158 (11744669_a_at) / Fold change /veh LINC00158 (11744669_a_at) / RFU DUSP10 (11751237_a_at) / Fold change /veh DUSP10 (11751237_a_at) / RFU ID3 (11757404_x_at) / Fold change /veh ID3 (11757404_x_at) / RFU PLEKHG5 (11737974_s_at) / Fold change /veh PLEKHG5 (11737974_s_at) / RFU LRRC4B (11730491_at) / Fold change /veh LRRC4B (11730491_at) / RFU GIMAP4 (11747438_a_at) / Fold change /veh GIMAP4 (11747438_a_at) / RFU KRT8 (11758183_x_at) / Fold change /veh KRT8 (11758183_x_at) / RFU CNN1 (11734310_a_at) / Fold change /veh CNN1 (11734310_a_at) / RFU VPS37D (11726825_at) / Fold change /veh VPS37D (11726825_at) / RFU C10orf10 (11716522_x_at) / Fold change /veh C10orf10 (11716522_x_at) / RFU KIR2DL2 /// KIR2DL4 /// KIR2DL5A /// KIR2DL5B /// KIR2DS1 /// KIR2DS2 /// KIR2DS3 /// KIR2DS4 /// KIR3DL3 /// KIR3DL3 /// KIR3DS1 (11738374_at) / Fold change /veh KIR2DL2 /// KIR2DL4 /// KIR2DL5A /// KIR2DL5B /// KIR2DS1 /// KIR2DS2 /// KIR2DS3 /// KIR2DS4 /// KIR3DL3 /// KIR3DL3 /// KIR3DS1 (11738374_at) / RFU C1QL1 (11718748_at) / Fold change /veh C1QL1 (11718748_at) / RFU TMPRSS4 (11747572_a_at) / Fold change /veh TMPRSS4 (11747572_a_at) / RFU HAMP (11756126_x_at) / Fold change /veh HAMP (11756126_x_at) / RFU RNFT2 (11725882_a_at) / Fold change /veh RNFT2 (11725882_a_at) / RFU NR4A2 (11747474_a_at) / Fold change /veh NR4A2 (11747474_a_at) / RFU ABCC12 (11746883_a_at) / Fold change /veh ABCC12 (11746883_a_at) / RFU TMEM136 (11760407_x_at) / Fold change /veh TMEM136 (11760407_x_at) / RFU CLDN22 /// WWC2 (11732394_at) / Fold change /veh CLDN22 /// WWC2 (11732394_at) / RFU HLA-DPB1 (11760878_x_at) / Fold change /veh HLA-DPB1 (11760878_x_at) / RFU SPINT1 (11716480_a_at) / Fold change /veh SPINT1 (11716480_a_at) / RFU GAP43 (11754022_s_at) / Fold change /veh GAP43 (11754022_s_at) / RFU A4GNT (11735810_at) / Fold change /veh A4GNT (11735810_at) / RFU PRB3 (11715151_x_at) / Fold change /veh PRB3 (11715151_x_at) / RFU TUBB4B (11761932_at) / Fold change /veh TUBB4B (11761932_at) / RFU CAPN14 (11732068_a_at) / Fold change /veh CAPN14 (11732068_a_at) / RFU TMCC2 (11721928_a_at) / Fold change /veh TMCC2 (11721928_a_at) / RFU IRGQ (11745062_a_at) / Fold change /veh IRGQ (11745062_a_at) / RFU FAM174B (11720279_a_at) / Fold change /veh FAM174B (11720279_a_at) / RFU TMPRSS4 (11748680_a_at) / Fold change /veh TMPRSS4 (11748680_a_at) / RFU FAM212B (11763350_a_at) / Fold change /veh FAM212B (11763350_a_at) / RFU PLEKHG5 (11743358_a_at) / Fold change /veh PLEKHG5 (11743358_a_at) / RFU ZSCAN30 (11745921_a_at) / Fold change /veh ZSCAN30 (11745921_a_at) / RFU CMKLR1 (11741424_a_at) / Fold change /veh CMKLR1 (11741424_a_at) / RFU LOC101060620 /// MAPK8IP1 (11723275_at) / Fold change /veh LOC101060620 /// MAPK8IP1 (11723275_at) / RFU SPTSSB (11747773_x_at) / Fold change /veh SPTSSB (11747773_x_at) / RFU PRSS12 (11739890_at) / Fold change /veh PRSS12 (11739890_at) / RFU BIN1 (11741810_x_at) / Fold change /veh BIN1 (11741810_x_at) / RFU WNT11 (11732464_a_at) / Fold change /veh WNT11 (11732464_a_at) / RFU C10orf10 (11716521_a_at) / Fold change /veh C10orf10 (11716521_a_at) / RFU C5orf56 (11738089_at) / Fold change /veh C5orf56 (11738089_at) / RFU CYB561 (11721691_x_at) / Fold change /veh CYB561 (11721691_x_at) / RFU ANKRD19P (11752326_a_at) / Fold change /veh ANKRD19P (11752326_a_at) / RFU OR2T12 /// OR2T33 /// OR2T8 (11738714_s_at) / Fold change /veh OR2T12 /// OR2T33 /// OR2T8 (11738714_s_at) / RFU VCAN (11748164_a_at) / Fold change /veh VCAN (11748164_a_at) / RFU JSRP1 (11732532_at) / Fold change /veh JSRP1 (11732532_at) / RFU KRTAP10-11 (11738290_x_at) / Fold change /veh KRTAP10-11 (11738290_x_at) / RFU MYO3A (11730013_a_at) / Fold change /veh MYO3A (11730013_a_at) / RFU EBF3 (11725865_a_at) / Fold change /veh EBF3 (11725865_a_at) / RFU CAMK2N1 (11719241_x_at) / Fold change /veh CAMK2N1 (11719241_x_at) / RFU C5orf56 (11738088_a_at) / Fold change /veh C5orf56 (11738088_a_at) / RFU OLFML3 (11715873_a_at) / Fold change /veh OLFML3 (11715873_a_at) / RFU LOC100653217 /// NTM (11731650_a_at) / Fold change /veh LOC100653217 /// NTM (11731650_a_at) / RFU MAPK11 (11762145_a_at) / Fold change /veh MAPK11 (11762145_a_at) / RFU FIZ1 (11724087_x_at) / Fold change /veh FIZ1 (11724087_x_at) / RFU OASL (11726364_x_at) / Fold change /veh OASL (11726364_x_at) / RFU SOX15 (11748057_x_at) / Fold change /veh SOX15 (11748057_x_at) / RFU CD79A (11719716_a_at) / Fold change /veh CD79A (11719716_a_at) / RFU HIST1H1D (11736915_at) / Fold change /veh HIST1H1D (11736915_at) / RFU CASKIN2 (11723855_a_at) / Fold change /veh CASKIN2 (11723855_a_at) / RFU LOC730098 (11760151_x_at) / Fold change /veh LOC730098 (11760151_x_at) / RFU OR4N2 (11742367_at) / Fold change /veh OR4N2 (11742367_at) / RFU PRRT2 (11749266_a_at) / Fold change /veh PRRT2 (11749266_a_at) / RFU SNX32 (11753110_a_at) / Fold change /veh SNX32 (11753110_a_at) / RFU CDHR5 (11726645_a_at) / Fold change /veh CDHR5 (11726645_a_at) / RFU RCAN1 (11760418_a_at) / Fold change /veh RCAN1 (11760418_a_at) / RFU FAM167A (11723789_a_at) / Fold change /veh FAM167A (11723789_a_at) / RFU FAM26E (11764081_at) / Fold change /veh FAM26E (11764081_at) / RFU ISYNA1 (11749810_s_at) / Fold change /veh ISYNA1 (11749810_s_at) / RFU ACY1 (11761880_at) / Fold change /veh ACY1 (11761880_at) / RFU 11764098_at / Fold change /veh 11764098_at / RFU SAMD14 (11745864_x_at) / Fold change /veh SAMD14 (11745864_x_at) / RFU NPB (11741838_a_at) / Fold change /veh NPB (11741838_a_at) / RFU TMPRSS6 (11731388_a_at) / Fold change /veh TMPRSS6 (11731388_a_at) / RFU KRTAP10-2 (11738614_at) / Fold change /veh KRTAP10-2 (11738614_at) / RFU ARHGAP8 /// PRR5-ARHGAP8 (11727945_x_at) / Fold change /veh ARHGAP8 /// PRR5-ARHGAP8 (11727945_x_at) / RFU KRTAP5-7 /// NADSYN1 (11734609_at) / Fold change /veh KRTAP5-7 /// NADSYN1 (11734609_at) / RFU RASL12 (11751679_a_at) / Fold change /veh RASL12 (11751679_a_at) / RFU CDKN2B (11736163_a_at) / Fold change /veh CDKN2B (11736163_a_at) / RFU PRF1 (11729649_at) / Fold change /veh PRF1 (11729649_at) / RFU, ZNF638 /// ZNF638-IT1 / Fold change vs veh, ZNF638 /// ZNF638-IT1 / RFU, PANK3 / Fold change vs veh, PANK3 / RFU, SH3YL1 / Fold change vs veh, SH3YL1 / RFU, ZEB2 / Fold change vs veh, ZEB2 / RFU, NRIP1 / Fold change vs veh, NRIP1 / RFU, PTTG1IP / Fold change vs veh, PTTG1IP / RFU, CAPN2 / Fold change vs veh, CAPN2 / RFU, MED14 / Fold change vs veh, MED14 / RFU, SNORA58 / Fold change vs veh, SNORA58 / RFU, C1orf63 / Fold change vs veh, C1orf63 / RFU, LRRFIP1 / Fold change vs veh, LRRFIP1 / RFU, NDUFAF7 / Fold change vs veh, NDUFAF7 / RFU, SLC12A2 / Fold change vs veh, SLC12A2 / RFU, IBTK / Fold change vs veh, IBTK / RFU, ESF1 / Fold change vs veh, ESF1 / Fold change vs veh, TMEM50B / RFU, TAOK1 / Fold change vs veh, TAOK1 / RFU, ACBD3 / Fold change vs veh, ACBD3 / RFU, TMA16 / Fold change vs veh, TMA16 / RFU, RWDD3 / Fold change vs veh, RWDD3 / RFU, BCAT1 / Fold change vs veh, BCAT1 / RFU, EDEM3 / Fold change vs veh, EDEM3 / RFU, TMEM33 / Fold change vs veh, TMEM33 / RFU, WDR75 / Fold change vs veh, WDR75 / RFU, AHCTF1 / Fold change vs veh, AHCTF1 / RFU, TFRC / Fold change vs veh, TFRC / RFU, ZDHHC17 / Fold change vs veh, ZDHHC17 / RFU, NOM1 / Fold change vs veh, NOM1 / RFU, ARL8B / Fold change vs veh, ARL8B / RFU, ZBTB11 / Fold change vs veh, ZBTB11 / RFU, TAMM41 / Fold change vs veh, TAMM41 / RFU, KIAA1704 /// LOC100996395 / Fold change vs veh, KIAA1704 /// LOC100996395 / RFU, ING1 / Fold change vs veh, ING1 / RFU, TRMT61B / Fold change vs veh, TRMT61B / RFU, FUBP3 / Fold change vs veh, FUBP3 / RFU, TP53 / Fold change vs veh, TP53 / RFU, TNKS2 / Fold change vs veh, TNKS2 / RFU, ZFP14 / Fold change vs veh, ZFP14 / RFU, ACTR2 / Fold change vs veh, ACTR2 / RFU, PPP3R1 / Fold change vs veh, PPP3R1 / RFU, PIK3R1 / Fold change vs veh, PIK3R1 / RFU, HNRNPA1 / Fold change vs veh, HNRNPA1 / RFU, RNF170 / Fold change vs veh, RNF170 / RFU, ZNF28 / Fold change vs veh, ZNF28 / RFU, RNGTT / Fold change vs veh, RNGTT / RFU, OGT / Fold change vs veh, OGT / RFU, BRD1 / Fold change vs veh, BRD1 / RFU, MARS / Fold change vs veh, MARS / RFU, ZNF655 / Fold change vs veh, ZNF655 / RFU, FAHD1 / Fold change vs veh, FAHD1 / RFU, BDP1 / Fold change vs veh, BDP1 / RFU, LRRCC1 / Fold change vs veh, LRRCC1 / RFU, ARID1A / Fold change vs veh, ARID1A / RFU, ZNF146 / Fold change vs veh, ZNF146 / RFU, ZNF330 / Fold change vs veh, ZNF330 / RFU, GPN3 / Fold change vs veh, GPN3 / RFU, C9orf123 / Fold change vs veh, C9orf123 / RFU, N4BP2L2 / Fold change vs veh, N4BP2L2 / RFU, ARFIP1 / Fold change vs veh, ARFIP1 / RFU, FAM179B / Fold change vs veh, FAM179B / RFU, BCL10 / Fold change vs veh, BCL10 / RFU, UHRF1BP1L / Fold change vs veh, UHRF1BP1L / RFU, BET1 / Fold change vs veh, BET1 / RFU, CNOT2 / Fold change vs veh, CNOT2 / RFU, ZNF268 / Fold change vs veh, ZNF268 / Fold change vs veh, ZNF507 / RFU, DGCR2 / Fold change vs veh, DGCR2 / RFU, WDSUB1 / Fold change vs veh, WDSUB1 / Fold change vs veh, HSP90B1 /// MIR3652 / RFU, ADSS / Fold change vs veh, ADSS / RFU, GK / Fold change vs veh, GK / RFU, ZNF148 / Fold change vs veh, ZNF148 / RFU, TAF9 / Fold change vs veh, TAF9 / RFU, SLC1A5 / Fold change vs veh, SLC1A5 / RFU, SLMO2 / Fold change vs veh, SLMO2 / RFU, ABCC4 / Fold change vs veh, ABCC4 / RFU, LOC101060439 /// RAP1B / Fold change vs veh, LOC101060439 /// RAP1B / RFU, RFX7 / Fold change vs veh, RFX7 / RFU, GTPBP10 / Fold change vs veh, GTPBP10 / RFU, CNEP1R1 / Fold change vs veh, CNEP1R1 / RFU, BIVM-ERCC5 /// ERCC5 / Fold change vs veh, BIVM-ERCC5 /// ERCC5 / RFU, ILF3 / Fold change vs veh, ILF3 / RFU 11762660_at / Fold change /veh 11762660_at / RFU VCAN (11757783_s_at) / Fold change /veh VCAN (11757783_s_at) / RFU DDX43 (11728927_at) / Fold change /veh DDX43 (11728927_at) / RFU KRT8 (11758188_x_at) / Fold change /veh KRT8 (11758188_x_at) / RFU NKD1 (11759106_at) / Fold change /veh NKD1 (11759106_at) / RFU SRD5A1 (11742802_a_at) / Fold change /veh SRD5A1 (11742802_a_at) / RFU TPSAB1 /// TPSB2 (11721975_s_at) / Fold change /veh TPSAB1 /// TPSB2 (11721975_s_at) / RFU GSTM3 (11746129_a_at) / Fold change /veh GSTM3 (11746129_a_at) / RFU IL23R (11737362_x_at) / Fold change /veh IL23R (11737362_x_at) / RFU TMEM51 (11727254_a_at) / Fold change /veh TMEM51 (11727254_a_at) / RFU PIWIL2 (11732686_x_at) / Fold change /veh PIWIL2 (11732686_x_at) / RFU ORM1 (11744905_x_at) / Fold change /veh ORM1 (11744905_x_at) / RFU CCDC152 (11743942_at) / Fold change /veh CCDC152 (11743942_at) / RFU ECM1 (11717891_a_at) / Fold change /veh ECM1 (11717891_a_at) / RFU IL23R (11748794_a_at) / Fold change /veh IL23R (11748794_a_at) / RFU TNFAIP8L3 (11732012_x_at) / Fold change /veh TNFAIP8L3 (11732012_x_at) / RFU MBOAT4 (11741988_at) / Fold change /veh MBOAT4 (11741988_at) / RFU 11764193_at / Fold change /veh 11764193_at / RFU TMEM53 (11763286_at) / Fold change /veh TMEM53 (11763286_at) / RFU MAGEB2 (11727129_at) / Fold change /veh MAGEB2 (11727129_at) / RFU TMEM200A (11744735_a_at) / Fold change /veh TMEM200A (11744735_a_at) / RFU CCDC152 (11751479_a_at) / Fold change /veh CCDC152 (11751479_a_at) / RFU FAM211A (11726209_a_at) / Fold change /veh FAM211A (11726209_a_at) / RFU RGS16 (11746705_a_at) / Fold change /veh RGS16 (11746705_a_at) / RFU VCAN (11755009_s_at) / Fold change /veh VCAN (11755009_s_at) / RFU RHOB (11743442_s_at) / Fold change /veh RHOB (11743442_s_at) / RFU RGS16 (11720943_a_at) / Fold change /veh RGS16 (11720943_a_at) / RFU RGS16 (11720944_at) / Fold change /veh RGS16 (11720944_at) / RFU, VPS4B / Fold change vs veh, VPS4B / RFU, CREB1 / Fold change vs veh, CREB1 / RFU, DNAJC13 / Fold change vs veh, DNAJC13 / RFU, GNAQ / Fold change vs veh, GNAQ / RFU, CDK5R1 / Fold change vs veh, CDK5R1 / RFU, ZRANB3 / Fold change vs veh, ZRANB3 / RFU, CUL4A / Fold change vs veh, CUL4A / RFU, CCNY / Fold change vs veh, CCNY / RFU, UFL1 / Fold change vs veh, UFL1 / RFU, COG3 / Fold change vs veh, COG3 / RFU, DIAPH2 / Fold change vs veh, DIAPH2 / RFU, SKA2 / Fold change vs veh, SKA2 / RFU, AFF3 / Fold change vs veh, AFF3 / RFU, LMF1 / Fold change vs veh, LMF1 / RFU, IPO11 / Fold change vs veh, IPO11 / RFU, DFFB / Fold change vs veh, DFFB / RFU, FOXP1 / Fold change vs veh, FOXP1 / RFU, CARD8 / Fold change vs veh, CARD8 / RFU, STRN3 / Fold change vs veh, STRN3 / RFU, ADK / Fold change vs veh, ADK / RFU, RASSF2 / Fold change vs veh, RASSF2 / RFU, WIPF1 / Fold change vs veh, WIPF1 / RFU, LARP1B / Fold change vs veh, LARP1B / RFU, RASA1 / Fold change vs veh, RASA1 / RFU, RB1 / Fold change vs veh, RB1 / RFU, PPFIA1 / Fold change vs veh, PPFIA1 / RFU, MAT2A / Fold change vs veh, MAT2A / RFU, CCT5 / Fold change vs veh, CCT5 / RFU, WDR92 / Fold change vs veh, WDR92 / RFU, CUX1 / Fold change vs veh, CUX1 / RFU, TTC7A / Fold change vs veh, TTC7A / RFU, TMEM135 / Fold change vs veh, TMEM135 / RFU, DEPTOR / Fold change vs veh, DEPTOR / RFU, CPM / Fold change vs veh, CPM / RFU, DNAJB6 / Fold change vs veh, DNAJB6 / RFU, CACNA2D3 / Fold change vs veh, CACNA2D3 / RFU, DTX4 / Fold change vs veh, DTX4 / RFU, TFCP2 / Fold change vs veh, TFCP2 / RFU, GMCL1 /// GMCL1P1 / Fold change vs veh, GMCL1 /// GMCL1P1 / RFU, AEBP2 / Fold change vs veh, AEBP2 / RFU, SNHG1 /// SNORD22 /// SNORD25 /// SNORD26 /// SNORD27 /// SNORD28 /// SNORD29 /// SNORD31 / Fold change vs veh, SNHG1 /// SNORD22 /// SNORD25 /// SNORD26 /// SNORD27 /// SNORD28 /// SNORD29 /// SNORD31 / Fold change (Aza/veh), C12orf56 (ProbeSet 11735607_a_at) / Fold change (ACY-1035/veh), C12orf56 (ProbeSet 11735607_a_at) / Fold change (Aza/veh), FGFR1OP (ProbeSet 11751329_s_at) / Fold change (ACY-1035/veh), FGFR1OP (ProbeSet 11751329_s_at) / Fold change (Aza/veh), VPS36 (ProbeSet 11739960_a_at) / Fold change (ACY-1035/veh), VPS36 (ProbeSet 11739960_a_at) / RFU SYPL1 (11715823_x_at) / Fold change /veh SYPL1 (11715823_x_at) / RFU IGFBP7 (11715501_s_at) / Fold change /veh IGFBP7 (11715501_s_at) / RFU REEP3 (11722064_at) / Fold change /veh REEP3 (11722064_at) / RFU IGLL1 (11728026_x_at) / Fold change /veh IGLL1 (11728026_x_at): dose or concentration left out as unconfirmed
Conditions: MV-4-11 cells, 48 hours

In the case of `Nc1ccc(-c2cccs2)cc1NC(=O)c1ccc2c(c1)cc(C1CC1)n2CCN1CCOCC1` [ACY-1035], the “RFU KRTAP5-7 /// NADSYN1 (11734609_at)” value is reported as 11.39 RFU.
